Experiment [1] has as its system HeLa cells. As to the kind of experiment: STS-induced apoptosis in Hela cells, modified TAT-ART peptides (Example 8). The class given is cell-based. Particulars: 100, 300 or 1000 nM, 0.2 μM STS, 24 hours. The procedure: The modified TAT-ART1320 peptides used were TAT-ART1420 (SEQ ID NO: 25) and TAT-ART1320P13V (SEQ ID NO: 26), synthesized with a peptide synthesizer.
Hela cells (1×10^5 cells) were seeded in 12-well plates and incubated for 24 hours. Subsequently, cells were pre-treated for 1 hour by adding TAT-ART1320 or its modified peptide at a final concentration of 100, 300, or 1000 nM, followed by the addition of 0.2 μM STS and incubation for 24 hours. Cells without the addition of TAT-ART1320 or STS, together with cells without the addition of TAT-ART1320, were prepared as controls. Following incubation, cell death was evaluated by the trypan blue exclusion method.

Experiment [2] has as its target T1, Bax (Homo sapiens, UniProt Q07812). In words: Apoptosis-suppressive activity, summary statements without a stated test. The class given is cell-based. Details: expressed in transfected cells; host or cells: HEK 293T. Particulars: summary statement.
For experiment [3], the target named is T1, Bax. As to the kind of experiment: STS-induced mitochondrial translocation of Bax in COS7 cells, confocal microscopy. The note with it: 1000 nM pretreatment 1 hour, COS7 with pCI-myc-Bax. Details: expressed in transfected cells. The experiment is classed as cell-based. The procedure:
It is considered that, in order for Bax to induce apoptosis, it is essential for Bax to localize to mitochondria. Thus, the effect of TAT-ARTI320 on STS-induced mitochondrial translocation of Bax was examined.
COS7 cells (4×10^4 cells) were seeded in 12-well plates and incubated for 24 hours and then transfected with 1 μg of the pCI-myc-Bax gene. Subsequently, after further incubation for 23 hours, cells were pretreated for 1 hour with 1000 nM TAT-ART1320. Cells without TAT-ART1320 pretreatment were also prepared as controls. Further, […] of STS and 100 nM MitoTracker Orange (manufactured by Molecular Probes) were added and, after one hour, cells were fixed with 3% formaldehyde solution. Cells without the addition of STS were also prepared as controls.

The test system of experiment [4] is HeLa cells. As to the kind of experiment: STS-induced Bax-dependent apoptosis in HeLa cells, trypan blue exclusion. The experiment is classed as cell-based. Particulars: 0.2 μM STS, 24 hours. As for the experimental part: (§1) It is known that apoptosis induced by staurosporine (STS) is Bax-dependent. Thus, it was examined whether TAT-ART1320 can suppress STS-induced apoptosis.
(§2) HEK 293T cells or HeLa cells, at 5×10^4 cells each, were seeded in 12-well plates and incubated for 24 hours. Subsequently, cells were pre-treated by adding TAT-ART1320 at a final concentration of 100, 300, or 1000 nM, followed by further incubation for 24 hours. Then STS was added to HEK 293T cells and HeLa cells at 0.5 μM and 0.2 μM, respectively, followed by incubation for 24 hours. Cells without the addition of TAT-ART1320 or STS, together with cells without the addition of TAT-ART1320, were prepared as controls. Following incubation, cell death was evaluated by the trypan blue exclusion method.

The target in experiment [5] is T1, Bax. As to the kind of experiment: Apoptosis induced by overexpression of myc-Bax in HEK 293T cells, trypan blue exclusion. The experiment is classed as cell-based. Details: expressed in transfected cells; host or cells: HEK 293T. The note with it: 100, 300 or 1000 nM, 24 hours. As for the experimental part: (§3) HEK 293T cells (1×10^5 cells) were seeded in 12-well plates and incubated for 24 hours. Subsequently, myc, myc-Bax, or myc-Bak was overexpressed within cells by introducing pCI-myc, pCI-myc-Bax, or pCI-myc-Bakplasmid respectively into HEK 293 T cells. After incubation for 17 hours, TAT-ART1320 was added at a final concentration of 100, 300, or 1000 nM, followed by further incubation for 24 hours. Cells without the addition of TAT-ARTI320 were used as controls. Following incubation, cell death was evaluated by the trypan blue exclusion method.

Experiment [6] deals with brain ischemia model gerbils. In words: Brain ischemia model, 4 min bilateral common carotid artery occlusion and reperfusion. The experiment is classed as in vivo, gerbil. The procedure: Next, to confirm the effect of the peptide according to the present invention on apoptosis-induced diseases, such as neurodegenerative diseases, using a model of brain ischemia induced by a 4 min occlusion of the bilateral common carotid arteries in gerbils the influence of TAT-ART1320 ([…]) on the neurological symptom scores after reperfusion and on delayed neuronal death in hippocampus four days after reperfusion.
Thirteen-week-old male gerbils (SPF, Japan SLC, Inc.) were kept over a week in a barrier system animal room with controlled temperature (23±2° C), humidity (55±15%), ventilation (at least 5 air changes/hour), and light (12 hour light period, 6:30 a.m. to 6:30 p.m.). The gerbils thus maintained, weighing 60 to 80 g, were used as test animals. Food and water were provided at libitum.
Under ether anesthesia, test animals underwent a midline skin incision in the neck to expose the bilateral internal carotid arteries (the ether anesthesia was stopped on exposure of the bilateral internal carotid arteries), which were occluded bilaterally with artery forceps, to induce brain ischemia. Reperfusion was initiated by removing the artery forceps 4 min after occlusion and the skin was sutured, immediately followed by administration of TAT-ART1320 or saline. Subsequently, test animals were warmed under an infrared lamp until their activity was recovered.
TAT-ART1320 was prepared for administration by dissolving 3 or 30 mg of TAT-ART1320 in 10 ml of saline. This solution was administered at a dose of 10 ml/kg BW. Immediately after reperfusion TAT-ART1320 was intravenously injected into the caudal vain of each animal at 3 mg/kg BW or 30 mg/kg BW, followed by another intravenous injection after 5 hours. (The animals (n=13) receiving TAT-ART1320 at 3 mg/kg BW and animals receiving TAT-ART1320 at 30 mg/kg BW were called the 3 mg/kg group and the 30 mg/kg group, respectively.) The next day, intravenous injection was switched to subcutaneous injection and the same doses of TAT-ART1320 were administered twice at intervals of 5 hours, followed by once-daily SC injection. Animals (n=13: control group) receiving only saline were used as controls.
Immediately after reperfusion and subsequent administration of TAT-ART1320 or saline, observation of symptoms of the central nervous system (disturbance of consciousness, convulsions, suppression of motor responses, blepharoptosis) was started. […]
The bilateral hippocampal regions were excised from the fixed brain and 4 μm paraffin sections (about 1.5 mm posterior from the bregma) were prepared from each hippocampus. […] Subsequently, the length of bilateral hippocampal CA1 regions was measured with an image analyzer (MacSCOPE). Further, the number of survived neurons in each section was counted under a microscope. […]

The test system of experiment [7] is HEK 293T cells. In words: STS-induced Bax-dependent apoptosis in HEK 293T cells, trypan blue exclusion. Particulars: 0.5 μM STS, 24 hours. The class given is cell-based. The procedure: as §1, §2
Experiment [8] has as its target T2, Bak (Homo sapiens, UniProt Q16611).
T2 construct: expressed in transfected cells; host or cells: HEK 293T
T2 sequence (Q16611 1-211): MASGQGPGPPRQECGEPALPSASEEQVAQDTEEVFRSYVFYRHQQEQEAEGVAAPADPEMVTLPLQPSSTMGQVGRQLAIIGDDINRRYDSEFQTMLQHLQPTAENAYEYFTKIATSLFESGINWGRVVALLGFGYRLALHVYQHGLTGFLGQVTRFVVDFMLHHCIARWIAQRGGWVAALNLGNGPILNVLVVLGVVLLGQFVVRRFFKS
In words: Apoptosis induced by overexpression of myc-Bak in HEK 293T cells, trypan blue exclusion. The experiment is classed as cell-based. Particulars: 100, 300 or 1000 nM, 24 hours. As for the experimental part: as §3

Experiment [9] has as its target T1, Bax. In words: Bax-induced apoptosis in pCI-Bax-transfected HEK 293T cells with HTA1320 added, trypan blue exclusion. The experiment is classed as cell-based. Details: expressed in transfected cells; host or cells: HEK 293T. The note with it: survival after 40 hours. The procedure: It was examined whether or not HTAI320, prepared in Example 3, inhibits Bax-induced apoptosis-promoting activity. HEK 293T cells were plated at 1×10^5 cells per well on 12-well plastic dishes and incubated overnight. Subsequently, cells were transfected with pCI-Bax by lipofection using opti-MEM (manufactured by GibcoBRL) and Lipofectamine (manufactured by GibcoBRL). After five hours, the medium was changed and HTA1320 were added at various concentrations. Subsequently, the cell survival rate after 40 hours was evaluated by the trypan blue exclusion method. As a result, HTA1320 inhibited Bax-induced apoptosis-promoting activity.

T1 sequence (Q07812 whole entry): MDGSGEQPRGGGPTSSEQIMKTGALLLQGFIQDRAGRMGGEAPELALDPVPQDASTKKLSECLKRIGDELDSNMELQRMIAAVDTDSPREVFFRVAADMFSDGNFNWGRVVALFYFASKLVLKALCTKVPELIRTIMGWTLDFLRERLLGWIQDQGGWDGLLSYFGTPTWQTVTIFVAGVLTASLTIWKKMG

For the molecule “SEQ ID NO: 1: peptide from threonine in the 14th position to methionine in the 20th position of the ART sequence (TSSEQIM; Inventor Imoto, Masaya Inventor Tabe, Hirokazu Inventor Tashiro, Etsu Inventor OHMORI, Yusuke; listed as Homo sapiens)”, the “suppression of STS-induced apoptosis compared with TAT-ART1320 (SEQ ID NO: 2 peptide)” value in [1] is on record as “stronger suppressive activity”. For the same molecule, in [2], the apoptosis-suppressive activity entry is reported as “stronger apoptosis- suppressive activity than the peptide (SEQ ID NO: 2)”.
With “TAT-ART1420: modified TAT-ART1320 peptide, ART positions 14 to 20, synthesized with a peptide synthesizer (YGRKKRRQRRRTSSEQIM; TAT-ART1420)”, the “suppression of STS-induced apoptosis compared with TAT-ART1320 (SEQ ID NO: 2 peptide)” value in experiment [1] is listed as “equal to or greater than that of TAT-ART1320”.
On to VTSSEQIM (ART1320P13V) [SEQ ID NO: 7], for which, in [1], the “suppression of STS-induced apoptosis compared with TAT-ART1320 (SEQ ID NO: 2 peptide)” value was “stronger suppressive activity”.
On to “TAT-ART1320: HIV-TAT sequence linked to ART positions 13 to 20, synthesized with a peptide synthesizer (YGRKKRRQRRRPTSSEQIM; TAT-ART1320)”, for which, in experiment [3], the “STS-induced mitochondrial localization / translocation of Bax” value is “Bax did not localize to mitochondria”. Moreover, the entries for the “concentrations suppressing STS-induced apoptosis” value in [4] and in experiment [7] were 100 to 1000 nM and 1 to 100 nM, respectively. The “inhibition of apoptosis induced by overexpression of Bax” value in experiment [5] is “inhibits”. Also, in experiment [6] (3 mg/kg and 30 mg/kg groups), the “change of neurological symptoms scores with dose” value was “dose-dependent decrease”. The “number of survived neurons per unit length in hippocampal CA1” value in experiment [6] (30 mg/kg group, four days after reperfusion, control 15.4±5.2) worked out at 74.5±23.1. This molecule also had a neurological symptoms score in experiment [6] (30 mg/kg group, i.v. then s.c., control 8.2±1.4, P<0.05) of 2.8±0.6. Besides, in experiment [6] (3 and 30 mg/kg groups, four days after reperfusion), the “neuronal death in hippocampal CA1” value is reported as “significantly suppresses neuronal death”. In [8], the “inhibition of apoptosis induced by overexpression of Bak” value is reported as “cannot inhibit”.
Turning to “SEQ ID NO: 2: peptide from proline in the 13th position to methionine in the 20th position of the ART sequence (PTSSEQIM; listed as Homo sapiens)”, the “STS-induced mitochondrial localization / translocation of Bax” value in experiment [3] is “effect of suppressing SIS-induced mitochondrial translocation of Bax”. Besides, the apoptosis-suppressive activity result in experiment [2] is “strong apoptosis-suppressive activity”.

B1: HTA1320: E. coli-expressed peptide of ART positions 13 to 20 with HIV-Tat sequence and His sequence (protein)
chain: MRGSHHHHHHGMASMTGGQQMGRDLYDDDDKDRWIRPRDLQLVPWYGRKKRRQRRRPTSSEQIM
modifications: His-Tat-ART13/20(HTA1320)
For the molecule B1, the “apoptosis-suppressive activity at low concentrations versus high concentrations” value in experiment [9] (low concentrations) is on record as “almost equivalent to that at high concentrations”. The “inhibition of Bax-induced apoptosis-promoting activity” value in [9] (various concentrations) is listed as “inhibited”.

The values are drawn from patent publication US20060246047A1, “Peptide wirh apoptosis-inhibiting activity” (priority 2003, published 2006).
